How the values were obtained:
[1] = test system: conscious Sprague-Dawley rats; experiment: Acute cardiovascular and renal excretory studies with ICV or IV norBNI pretreatment (Example 4); assay type: in vivo, rat; conditions: for Total urine output: difelikefalin 10 μg/kg or nalfurafine 5 μg/kg IV, 90 min; for Urine osmolality / Urine potassium concentration [K+] / Urine sodium concentration [Na+]: total 90-min urine
Protocol: Male Sprague-Dawley rats (Envigo Labs, Indianapolis, IN) were individually housed, allowed tap water and standard rodent diet ad libitum, and kept under a 12-hour light-dark cycle. Rats used in these experiments weighed between 300 and 350 grams and were randomly assigned to experimental groups. All procedures were conducted in accordance with the National Institutes of Health guidelines for the care and use of animals and approved by the Louisiana State University Health Sciences Center Institutional Animal Care and Use Committee.
Aseptic technique was adhered to for all surgeries and detailed surgical methods were followed as previously described.^14 Briefly, 3-5 days before experimentation, rats requiring central ventricle access for administration of drug/vehicle into the brain were anesthetized with ketamine and xylazine and a stainless-steel cannula was stereotaxically implanted into the right lateral cerebral ventricle.^14
On the morning of the experiment, rats were anesthetized and maintained with inhaled 2% isoflurane, and polyethylene catheters were surgically placed into the left femoral artery, left femoral vein, and urinary bladder.^15.16 Following surgery, rats were placed in an elevated restrainer for recovery and collection of urine from an indwelling bladder catheter.^15 After completion of experimental protocols, rats were anesthetized with isoflurane and decapitated.
During stabilization of cardiovascular and renal excretory parameters, rats received an isotonic saline infusion (55 μl/min), which lasted throughout the duration of the experiment. To record mean arterial pressure (MAP) and heart rate (HR), arterial catheters were connected to a pressure transducer (MLT0670, ADInstruments, Sydney, Australia), which was connected to Powerlab 8/30 (ADInstruments) and visualized using LabChart software (v8.1.5; ADInstruments). After one hour of recovery from surgery, rats were pretreated with the KOR antagonist norBNI or isotonic saline vehicle through either an intracerebroventricular (ICV) catheter or intravenous (IV) catheter. […] Next, drug or vehicle (isotonic saline) was injected into the femoral vein and urine samples were collected every 10 minutes during a 90-minute experimental period. The following drug concentrations were used: nalfurafine 5 μg/kg, difelikefalin 10 μg/kg, norBNI 30 mg/kg (IV), norBNI 1 μg/5 μL (ICV). All groups are n=6. Urine sodium and potassium were measured using a flame photometer (model 943; Instrumentation Laboratories, Lexington, MA). Urine volume was measured gravimetrically, and urine osmolality was measured using a vapor pressure osmometer (model 5600; WESCOR, Logan, UT).
All results are expressed as mean±SEM. For determining statistically different changes at time points within a treatment group, means were compared to the control value using 2-way ANOVA with repeated measures and a post hoc Dunnett test following confirmation of a significant F value. For statistically different changes at individual time points between treatment groups, mean values were compared using 2-way ANOVA with repeated measures and a post hoc Sidak test following confirmation of a significant/value. For means between groups for total urine output, urine sodium concentration, urine potassium concentration, and urine osmolality, a Student/test was used. Statistical significance was characterized as P<0.05 and statistics were performed on Prism 7.05 software (GraphPad Software, Inc, San Diego, CA).

[2] = test system: conscious Sprague-Dawley rats; experiment: Acute cardiovascular and renal excretory studies, i.v. bolus (Example 3); assay type: in vivo, rat
Protocol: Animals: Male Sprague-Dawley (SD) rats (Envigo Labs, Indianapolis, IN), 300-350 g, were individually housed under a 12 h light-dark cycle and allowed tap water and standard rodent diet ad libitum. Rats were randomly assigned to experimental groups for all acute and subacute studies. All procedures were approved by the Louisiana State University Health Sciences Center Institutional Animal Care and Use Committee and conducted in accordance with the National Institutes of Health guidelines for the care and use of animals.
Surgical Procedures: Aseptic technique was followed for all surgical procedures. On the morning of the experiment, rats were anesthetized with and maintained under inhaled 2% isoflurane, and polyethylene catheters (PE50; BD Diagnostics, Sparks, MD) were surgically inserted into the left femoral vein and left femoral artery for the infusion of saline and/or drug administration and the recording of arterial blood pressure, respectively. Subsequently, a suprapubic incision was made and a flanged polyethylene catheter (PE240; BD Diagnostics, Sparks, MD) was inserted into the bladder, exteriorized, and sutured to surrounding muscle and skin. Rats were then placed in an elevated restrainer (Krowicki & Kapusta, 2011) to recover from surgery and allow collection of urine. When acute experimental protocols were completed, rats were anesthetized via isoflurane and decapitated.
Acute Cardiovascular and Renal Excretory Studies: Following surgery, rats received an i.v. infusion of isotonic saline at 55 μL min^−1 throughout the duration of the experiment and were allowed 4-6 hours to recover from anesthesia. Arterial catheters were connected to a pressure transducer (MLT0670, ADInstruments, Sydney, Australia), which was connected to Powerlab 8/30 (ADInstruments) for recording of pulsatile and mean arterial blood pressure (MAP) and heart rate (HR). Blood pressure and HR were visualized using LabChart software (v8.1.5; ADInstruments). […] Following this control period, drug or vehicle (isotonic saline) was injected into the femoral vein catheter at a volume of 2 cc kg^−1, and urines were collected in 10 minute periods for a span of 90 minutes. […] All groups are n=6. Urine volume was measured gravimetrically, urine sodium and potassium concentrations were measured using flame photometry (model 943; Instrumentation Laboratories, Lexington, MA), and urine osmolality was measured using a vapor pressure osmometer (model 5600; WESCOR, Logan, UT).
Experimental Design and Analysis: All results are expressed as mean±SEM. […] Means between groups for total urine output, Na^+ concentration, K^+ concentration, and urine osmolality were compared using a Student's t-test. Statistical significance was characterized as P<0.05. Statistics were carried out using Prism 7.05 software (GraphPad Software, Inc., San Diego, CA) and IBM SPSS Statistics (IBM, Armonk, NY).

[3] = ICV norBNI (1 μg/5 μL) pretreatment
[4] = IV norBNI (30 mg/kg) pretreatment
[5] = i.v. bolus, cumulative 90-min urine, same doses, mean±SEM

CN(C(=O)/C=C/c1ccoc1)[C@@H]1CC[C@@]2(O)[C@H]3Cc4ccc(O)c5c4[C@@]2(CCN3CC2CC2)[C@H]1O5 [nalfurafine, Nalfurafine]
Effect on MAP [1, 3]: prevented the decrease in MAP | Total urine output [1, 3]: 4.72 ± 0.41 mL | Urine osmolality [1, 3]: 358.5 ± 30.6 mmol/kg | Urine potassium concentration [K+] [1, 3]: 12.77±3.99 μeq/mL | Urine sodium concentration [Na+] [1, 3]: 82.33±7.74 μeq/mL | Total urine output ([1]; ICV vehicle (5 μL) pretreatment): 8.37 ± 0.40 mL | Effect on HR ([1]; ICV vehicle pretreatment): slight but statistically significant increase in HR | MAP peak Δ ([1]; ICV vehicle pretreatment, peak at 60 min (difelikefalin), 50 min (nalfurafine)): −6 mmHg | Urine osmolality ([1]; ICV vehicle pretreatment): 164 ± 8.09 mmol/kg | Urine potassium concentration [K+] ([1]; ICV vehicle pretreatment): 8.19±2.15 μeq/mL | Urine sodium concentration [Na+] ([1]; ICV vehicle pretreatment): 37.78±5.35 μeq/mL | Effect on HR [1, 4]: did not produce any change in HR | MAP peak Δ ([1]; IV norBNI (30 mg/kg) pretreatment, 80-minute peak for difelikefalin): abolished | Total urine output [1, 4]: 5.03 ± 0.39 mL | Urine osmolality [1, 4]: 439.2 ± 24.02 mmol/kg | Urine potassium concentration [K+] [1, 4]: 10.94±1.09 μeq/mL | Urine sodium concentration [Na+] [1, 4]: 109.1±7.85 μeq/mL | Total urine output ([1]; IV vehicle (2 cc/kg) pretreatment): 9.37 ± 0.42 mL | Effect on HR ([1]; IV vehicle pretreatment): did not produce any change in HR | Urine osmolality ([1]; IV vehicle pretreatment): 148.7 ± 4.4 mmol/kg | Urine potassium concentration [K+] ([1]; IV vehicle pretreatment): 5.49±0.68 μeq/mL | Urine sodium concentration [Na+] ([1]; IV vehicle pretreatment): 32.56±3.05 μeq/mL | Duration of the increase in urine flow rate above control ([2]; after i.v. bolus): 50 min | Time of peak diuresis (urine flow rate) ([2]; after i.v. bolus): 30 min | Time of peak antikaliuresis ([2]; after i.v. bolus 5 μg kg−1): 50 min | Time of peak antinatriuresis ([2]; after i.v. bolus 5 μg kg−1): 40 min | Effect on heart rate (HR) ([2]; i.v. bolus, 90-min protocol): did not change HR | Potassium concentration [K+] in cumulative urine [2, 5]: 4.51±0.68 μeq ml^−1 | Sodium concentration [Na+] in cumulative urine [2, 5]: 43.59±5.71 μeq ml^−1 | Urine osmolality [2, 5]: 158.7 ± 16.78 mmol/kg | Mean arterial pressure (MAP), peak Δ ([2]; i.v. bolus, peak change vs group control value, time of peak 40 to 90 min as printed): −11 mmHg | Decrease in MAP ([2]; i.v. nalfurafine, as summarised in the discussion): ~10 mmHg

Source: patent US20240180895A1, “USE OF KAPPA OPIOID RECEPTOR AGONISTS TO TREAT CARDIOVASCULAR DISEASE” (Board of Supervisors of Louisiana State University and …, priority 2021, published 2024)
